Drawing on publication doi:10.1101/2020.10.06.328336v1 (biorxiv, 2020), this text covers IC50 for 5 compounds.

Each structure is given as a SMILES string.

For assay [1], the target named is T1, SARS-CoV-2 RdRp complex (nsp12-nsp7-nsp8) (Severe acute respiratory syndrome coronavirus 2, UniProt P0DTD1). Nature of the assay: biochemical.
Assay [2] deals with T1, SARS-CoV-2 RdRp complex (nsp12-nsp7-nsp8). Nature of the assay: […]. In kind it is biochemical.

Consider `O=C(Nc1cc(C(=O)Nc2ccc(S(=O)(=O)O)cc2)cc(C(=O)Nc2ccc(S(=O)(=O)O)cc2)c1)Nc1cc(C(=O)Nc2ccc(S(=O)(=O)O)cc2)cc(C(=O)Nc2ccc(S(=O)(=O)O)cc2)c1` [NF110], for which it took 580 ± 40 nM to reach half-maximal inhibition in assay [1] (IC50).

As to `O=C(Nc1cccc(C(=O)Nc2cc(C(=O)Nc3ccc(S(=O)(=O)O)c4cc(S(=O)(=O)O)cc(S(=O)(=O)O)c34)ccc2F)c1)Nc1cccc(C(=O)Nc2cc(C(=O)Nc3ccc(S(=O)(=O)O)c4cc(S(=O)(=O)O)cc(S(=O)(=O)O)c34)ccc2F)c1` [NF157], the IC50 (as a rule, the concentration at which inhibition is half-maximal) in assay [1] came out at 50 nM. This IC50 is about 12-fold lower than that of the compound before.

The compound `O=C(Nc1ccc(C(=O)Nc2ccc(C(=O)Nc3ccc(S(=O)(=O)O)c4cc(S(=O)(=O)O)cc(S(=O)(=O)O)c34)cc2)cc1)Nc1ccc(C(=O)Nc2ccc(C(=O)Nc3ccc(S(=O)(=O)O)c4cc(S(=O)(=O)O)cc(S(=O)(=O)O)c34)cc2)cc1` [NF279] returned a half-maximal inhibitory concentration (IC50) in assay [1] of 50 nM. This counts as double-digit nanomolar.

As to `Cc1ccc(C(=O)Nc2ccc(S(=O)(=O)O)c3cc(S(=O)(=O)O)cc(S(=O)(=O)O)c23)cc1NC(=O)c1cccc(NC(=O)Nc2cccc(C(=O)Nc3cc(C(=O)Nc4ccc(S(=O)(=O)O)c5cc(S(=O)(=O)O)cc(S(=O)(=O)O)c45)ccc3C)c2)c1` [suramin], the IC50 in assay [2] turned out to be 260 nM.

`O=C(Nc1cc(C(=O)Nc2ccc(S(=O)(=O)O)cc2S(=O)(=O)O)cc(C(=O)Nc2ccc(S(=O)(=O)O)cc2S(=O)(=O)O)c1)Nc1cc(C(=O)Nc2ccc(S(=O)(=O)O)cc2S(=O)(=O)O)cc(C(=O)Nc2ccc(S(=O)(=O)O)cc2S(=O)(=O)O)c1` [NF449] yielded a half-maximal inhibitory concentration (IC50) in assay [1] of 50 nM.
